{
  "source": "patent EP4635500A1",
  "about": "“THERAPEUTIC AGENT FOR BACTERIAL INFECTION” (Sumitomo Pharma Co., Ltd., priority 2022, dated 2024)",
  "tested_on": "Enterobacterales",
  "assay": "MIC, broth microdilution, CDC/FDA Antibiotic Resistance Isolate Bank (Example 7, Tables 8, 11, 12)",
  "format": "cell-based",
  "conditions": "read-out: MIC",
  "note": "Where two headings read alike, the source gives them in different places.",
  "data": [
    {"smiles": "O=C(O)c1cn(C2CC2)c2cc(N3CCNCC3)c(F)cc2c1=O", "note": "[Ciprofloxacin, ciprofloxacin]", "values": [
      {"measurement": "MIC", "setting": "Klebsiella ozaenae, KUB No. 5548, AR Bank# 51", "value": "> 64", "unit": "µg/mL"},
      {"measurement": "MIC", "setting": "Klebsiella pnemnonine, KUB No. 5758, AR Bank # 362", "value": "> 64", "unit": "µg/mL"},
      {"measurement": "MIC", "setting": "Klebsiella pneumoniae, KUB No. 55, AR Bank# 47", "value": "> 64", "unit": "µg/mL"},
      {"measurement": "MIC", "setting": "Klebsiella pneumoniae, KUB No. 5531, AR Bank# 34", "value": 0.5, "unit": "µg/mL"},
      {"measurement": "MIC", "setting": "Klebsiella pneumoniae, KUB No. 5537, AR Bank# 40", "value": "> 64", "unit": "µg/mL"},
      {"measurement": "MIC", "setting": "Klebsiella pneumoniae, KUB No. 5540, AR Bank# 43", "value": 4, "unit": "µg/mL"},
      {"measurement": "MIC", "setting": "Klebsiella pneumoniae, KUB No. 5541, AR Bank# 44", "value": "> 64", "unit": "µg/mL"},
      {"measurement": "MIC", "setting": "Klebsiella pneumoniae, KUB No. 5543, AR Bank# 46", "value": "> 64", "unit": "µg/mL"},
      {"measurement": "MIC", "setting": "Klebsiella pneumoniae, KUB No. 5546, AR Bank# 49", "value": "> 64", "unit": "µg/mL"},
      {"measurement": "MIC", "setting": "Klebsiella pneumoniae, KUB No. 5563, AR Bank # 66", "value": "> 64", "unit": "µg/mL"},
      {"measurement": "MIC", "setting": "Klebsiella pneumoniae, KUB No. 5565, AR Bank # 68", "value": "> 64", "unit": "µg/mL"},
      {"measurement": "MIC", "setting": "Klebsiella pneumoniae, KUB No. 5572, AR Bank # 75", "value": "> 64", "unit": "µg/mL"},
      {"measurement": "MIC", "setting": "Klebsiella pneumoniae, KUB No. 5573, AR Bank # 76", "value": 0.5, "unit": "µg/mL"},
      {"measurement": "MIC", "setting": "Klebsiella pneumoniae, KUB No. 5576, AR Bank # 79", "value": "> 64", "unit": "µg/mL"},
      {"measurement": "MIC", "setting": "Klebsiella pneumoniae, KUB No. 5584, AR Bank # 87", "value": "> 64", "unit": "µg/mL"},
      {"measurement": "MIC", "setting": "Klebsiella pneumoniae, KUB No. 5594, AR Bank # 97", "value": "> 64", "unit": "µg/mL"},
      {"measurement": "MIC", "setting": "Klebsiella pneumoniae, KUB No. 5595, AR Bank # 98", "value": "> 64", "unit": "µg/mL"},
      {"measurement": "MIC", "setting": "Klebsiella pneumoniae, KUB No. 5603, AR Bank # 106", "value": "> 64", "unit": "µg/mL"},
      {"measurement": "MIC", "setting": "Klebsiella pneumoniae, KUB No. 5604, AR Bank # 107", "value": "> 64", "unit": "µg/mL"},
      {"measurement": "MIC", "setting": "Klebsiella pneumoniae, KUB No. 5606, AR Bank # 109", "value": "> 64", "unit": "µg/mL"},
      {"measurement": "MIC", "setting": "Klebsiella pneumoniae, KUB No. 5614, AR Bank # 117", "value": 8, "unit": "µg/mL"},
      {"measurement": "MIC", "setting": "Klebsiella pneumoniae, KUB No. 5617, AR Bank # 120", "value": "> 64", "unit": "µg/mL"},
      {"measurement": "MIC", "setting": "Klebsiella pneumoniae, KUB No. 5622, AR Bank # 125", "value": "> 64", "unit": "µg/mL"},
      {"measurement": "MIC", "setting": "Klebsiella pneumoniae, KUB No. 5626, AR Bank # 129", "value": "> 64", "unit": "µg/mL"},
      {"measurement": "MIC", "setting": "Klebsiella pneumoniae, KUB No. 5635, AR Bank # 138", "value": "> 64", "unit": "µg/mL"},
      {"measurement": "MIC", "setting": "Klebsiella pneumoniae, KUB No. 5637, AR Bank # 140", "value": "> 64", "unit": "µg/mL"},
      {"measurement": "MIC", "setting": "Klebsiella pneumoniae, KUB No. 5638, AR Bank # 141", "value": "> 64", "unit": "µg/mL"},
      {"measurement": "MIC", "setting": "Klebsiella pneumoniae, KUB No. 5643, AR Bank # 146", "value": "> 64", "unit": "µg/mL"},
      {"measurement": "MIC", "setting": "Klebsiella pneumoniae, KUB No. 5645, AR Bank # 148", "value": "> 64", "unit": "µg/mL"},
      {"measurement": "MIC", "setting": "Klebsiella pneumoniae, KUB No. 5650, AR Bank # 153", "value": "> 64", "unit": "µg/mL"},
      {"measurement": "MIC", "setting": "Klebsiella pneumoniae, KUB No. 5657, AR Bank # 160", "value": 0.06, "unit": "µg/mL"},
      {"measurement": "MIC", "setting": "Klebsiella pneumoniae, KUB No. 5757, AR Bank # 361", "value": "> 64", "unit": "µg/mL"},
      {"measurement": "MIC", "setting": "Klebsiella pneumoniae, KUB No. 5760, AR Bank # 364", "value": "> 64", "unit": "µg/mL"},
      {"measurement": "MIC", "setting": "Klebsiella pneumoniae, Klebsiella pneumoniae KUB No. 5784, AR Bank #438", "value": "> 64", "unit": "µg/mL"},
      {"measurement": "MIC", "setting": "Klebsiella pneumoniae, Klebsiella pneumoniae KUB No. 5797, AR Bank #453", "value": "> 64", "unit": "µg/mL"},
      {"measurement": "MIC", "setting": "Klebsiella pneumoniae, Klebsiella pneumoniae KUB No. 5809, AR Bank #504", "value": 2, "unit": "µg/mL"},
      {"measurement": "MIC", "setting": "Klebsiella pneumoniae, Klebsiella pneumoniae KUB No. 5810, AR Bank #505", "value": 0.5, "unit": "µg/mL"},
      {"measurement": "MIC", "setting": "Klebsiella pneumoniae, Klebsiella pneumoniae KUB No. 5811, AR Bank #506", "value": 2, "unit": "µg/mL"},
      {"measurement": "MIC", "setting": "Klebsiella pneumoniae, Klebsiella pneumoniae KUB No. 5812, AR Bank #507", "value": "> 64", "unit": "µg/mL"},
      {"measurement": "MIC", "setting": "Klebsiella pneumoniae, Klebsiella pneumoniae KUB No. 5828, AR Bank #523", "value": 4, "unit": "µg/mL"},
      {"measurement": "MIC", "setting": "Klebsiella pneumoniae, Klebsiella pneumoniae KUB No. 5830, AR Bank #525", "value": "> 64", "unit": "µg/mL"},
      {"measurement": "MIC", "setting": "Kluyvera ascorbata, KUB No. 5641, AR Bank # 144", "value": 1, "unit": "µg/mL"},
      {"measurement": "MIC", "setting": "Morganella morganii, KUB No. 5554, AR Bank# 57", "value": "> 64", "unit": "µg/mL"},
      {"measurement": "MIC", "setting": "Morganella morganii, Morganella morganii KUB No. 5824, AR Bank #519", "value": 0.06, "unit": "µg/mL"},
      {"measurement": "MIC", "setting": "Proteus mirabilis, KUB No. 5652, AR Bank # 155", "value": "> 64", "unit": "µg/mL"},
      {"measurement": "MIC", "setting": "Proteus mirabilis, KUB No. 5653, AR Bank # 156", "value": 4, "unit": "µg/mL"},
      {"measurement": "MIC", "setting": "Proteus mirabilis, KUB No. 5656, AR Bank # 159", "value": 1, "unit": "µg/mL"},
      {"measurement": "MIC", "setting": "Proteus mirabilis, KUB No. 5775, AR Bank # 379", "value": 4, "unit": "µg/mL"},
      {"measurement": "MIC", "setting": "Providencia rettgeri, KUB No. 5579, AR Bank # 82", "value": 0.06, "unit": "µg/mL"},
      {"measurement": "MIC", "setting": "Serratia marcescens, KUB No. 5588, AR Bank # 91", "value": 0.06, "unit": "µg/mL"},
      {"measurement": "MIC", "setting": "Serratia marcescens, KUB No. 5596, AR Bank # 99", "value": 0.06, "unit": "µg/mL"},
      {"measurement": "MIC", "setting": "Serratia marcescens, KUB No. 5618, AR Bank # 121", "value": 0.06, "unit": "µg/mL"},
      {"measurement": "MIC", "setting": "Serratia marcescens, KUB No. 5619, AR Bank # 122", "value": 0.06, "unit": "µg/mL"},
      {"measurement": "MIC", "setting": "Serratia marcescens, KUB No. 5620, AR Bank # 123", "value": 0.06, "unit": "µg/mL"},
      {"measurement": "MIC", "setting": "Serratia marcescens, KUB No. 5621, AR Bank # 124", "value": 0.06, "unit": "µg/mL"},
      {"measurement": "MIC", "setting": "Serratia marcescens, KUB No. 5627, AR Bank # 130", "value": 0.06, "unit": "µg/mL"},
      {"measurement": "MIC", "setting": "Serratia marcescens, KUB No. 5628, AR Bank # 131", "value": 0.06, "unit": "µg/mL"},
      {"measurement": "MIC", "setting": "Serratia marcescens, Serratia marcescens KUB No. 5822, AR Bank #517", "value": 1, "unit": "µg/mL"},
      {"measurement": "MIC", "setting": "Serratia marcescens, Serratia marcescens KUB No. 5825, AR Bank #520", "value": 1, "unit": "µg/mL"}
    ]}
  ]
}
